Reference: the supplement of paper PMC11451515

System: SEM cells
Test: cell viability relative to DMSO control; higher = less cytotoxic
Settings: 48 h
In short: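 Viability, reported as a per-plate percentage of DMSO wells with cell-free wells as background, came from CellTiter-Glo One luminescence. Reading took place after 48 h at 37°C. Before that, NOMO1 or SEM (500 cells/well) or P12-Ichikawa (1000 cells/well) leukemia cells, adapted for at least four passages in each medium, were seeded in 1536-well plates (5 μl) and pin-dosed with library compounds in DMSO, 47 μM to 0.79 nM over 11 threefold points.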

[1] = HPLM + 10% dialyzed FBS, 0.000781 µM
[2] = HPLM + 10% dialyzed FBS, 0.00234 µM
[3] = HPLM + 10% dialyzed FBS, 0.00702 µM
[4] = HPLM + 10% dialyzed FBS, 0.0211 µM
[5] = HPLM + 10% dialyzed FBS, 0.0632 µM
[6] = HPLM + 10% dialyzed FBS, 0.19 µM
[7] = HPLM + 10% dialyzed FBS, 0.569 µM
[8] = HPLM + 10% dialyzed FBS, 1.71 µM
[9] = HPLM + 10% dialyzed FBS, 5.12 µM
[10] = HPLM + 10% dialyzed FBS, 15.4 µM
[11] = HPLM + 10% dialyzed FBS, 46.1 µM
[12] = RPMI 5 mM glucose + 10% FBS, 0.000781 µM
[13] = RPMI 5 mM glucose + 10% FBS, 0.00234 µM
[14] = RPMI 5 mM glucose + 10% FBS, 0.00702 µM
[15] = RPMI 5 mM glucose + 10% FBS, 0.0211 µM
[16] = RPMI 5 mM glucose + 10% FBS, 0.0632 µM
[17] = RPMI 5 mM glucose + 10% FBS, 0.19 µM
[18] = RPMI 5 mM glucose + 10% FBS, 0.569 µM
[19] = RPMI 5 mM glucose + 10% FBS, 1.71 µM
[20] = RPMI 5 mM glucose + 10% FBS, 5.12 µM
[21] = RPMI 5 mM glucose + 10% FBS, 15.4 µM
[22] = RPMI 5 mM glucose + 10% FBS, 46.1 µM
[23] = RPMI 5 mM glucose + 10% dialyzed FBS, 0.000781 µM
[24] = RPMI 5 mM glucose + 10% dialyzed FBS, 0.00234 µM
[25] = RPMI 5 mM glucose + 10% dialyzed FBS, 0.00702 µM
[26] = RPMI 5 mM glucose + 10% dialyzed FBS, 0.0211 µM
[27] = RPMI 5 mM glucose + 10% dialyzed FBS, 0.0632 µM
[28] = RPMI 5 mM glucose + 10% dialyzed FBS, 0.19 µM
[29] = RPMI 5 mM glucose + 10% dialyzed FBS, 0.569 µM
[30] = RPMI 5 mM glucose + 10% dialyzed FBS, 1.71 µM
[31] = RPMI 5 mM glucose + 10% dialyzed FBS, 5.12 µM
[32] = RPMI 5 mM glucose + 10% dialyzed FBS, 15.4 µM
[33] = RPMI 5 mM glucose + 10% dialyzed FBS, 46.1 µM

| SMILES | cell viability [1] [%] | cell viability [2] [%] | cell viability [3] [%] | cell viability [4] [%] | cell viability [5] [%] | cell viability [6] [%] | cell viability [7] [%] | cell viability [8] [%] | cell viability [9] [%] | cell viability [10] [%] | cell viability [11] [%] | cell viability [12] [%] | cell viability [13] [%] | cell viability [14] [%] | cell viability [15] [%] | cell viability [16] [%] | cell viability [17] [%] | cell viability [18] [%] | cell viability [19] [%] | cell viability [20] [%] | cell viability [21] [%] | cell viability [22] [%] | cell viability [23] [%] | cell viability [24] [%] | cell viability [25] [%] | cell viability [26] [%] | cell viability [27] [%] | cell viability [28] [%] | cell viability [29] [%] | cell viability [30] [%] | cell viability [31] [%] | cell viability [32] [%] | cell viability [33] [%] |
| --- | --- | --- | --- | --- | --- | --- | --- | --- | --- | --- | --- | --- | --- | --- | --- | --- | --- | --- | --- | --- | --- | --- | --- | --- | --- | --- | --- | --- | --- | --- | --- | --- | --- |
| COc1ccc(-n2nc(C(N)=O)c3c2C(=O)N(c2ccc(N4CCCCC4=O)cc2)CC3)cc1 | 99.5 | 116 | 132 | 142 | 120 | 137 | 134 | 130 | 133 | 145 | 128 | 120 | 136 | 117 | 124 | 101 | 120 | 136 | 145 | 136 | 154 | 136 |  |  |  |  |  |  |  |  |  |  |  |
| NC\1=N\C(=O)N(\C=C1)[C@@H]2O[C@H](CO)[C@@H](O)[C@H]2O | 78.4 | 93.7 | 119 | 98.3 | 117 | 131 | 132 | 115 | 111 | 125 | 75.3 | 86.3 | 102 | 123 | 90.4 | 135 | 143 | 143 | 144 | 127 | 147 | 64.7 | 83.6 | 101 | 125 | 94.5 | 140 | 138 | 154 | 152 | 154 | 153 | 46.8 |
| Cc1c(C(=O)NN2CCCCC2)nn(-c2ccc(Cl)cc2Cl)c1-c1ccc(Cl)cc1 | 103 | 125 | 113 | 114 | 128 | 129 | 122 | 124 | 131 | 127 | 93 | 103 | 112 | 118 | 118 | 118 | 127 | 127 | 135 | 130 | 129 | 99.5 | 107 | 120 | 137 | 116 | 128 | 149 | 139 | 144 | 119 | 133 | 104 |
| S=C1N\C=N/C2=C1[NH]C=N2 | 91.2 | 116 | 136 | 121 | 131 | 126 | 124 | 105 | 106 | 90.6 | 81.7 | 104 | 119 | 144 | 119 | 132 | 139 | 108 | 93.3 | 79.5 | 73.2 | 66.4 | 105 | 119 | 138 | 106 | 134 | 119 | 91.3 | 56.7 | 48.5 | 42.4 | 33.7 |
